This passage reports pest or weed control and plant injury results from US20240251792A1, “WEED CONTROL METHOD” (SYNGENTA CROP PROTECTION AG, priority 2021, published 2024).

Assay type in all cases: in vivo
The subject of one experiment is AMAPA. Put plainly: Pre-emergence biological efficacy (Table 3). To be noted: 312 h, after 13 days, read-out: evaluation (100=total damage to plant; 0=no damage to plant). An outline of the steps:
(§1)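 Seeds sown in standard soil and sprayed one day later with compound formulated in acetone/AMA solvent-emulsifier, diluted in 0.2% Genapol X080 to the final dose. Plants grown in glasshouse at 24/18° C, 15 h light, 50% humidity. Damage scored after 13 days (0=none, 100=total).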

In another experiment the test system is AMARE. Put plainly: Pre-emergence biological efficacy (Table 3). Conditions: Amaranthus retroflexus, 312 h, after 13 days, read-out: evaluation (100=total damage to plant; 0=no damage to plant). An outline of the steps:
as §1

In the next experiment the test system is ECHCG. The experiment is described as follows: Pre-emergence biological efficacy (Table 3). To be noted: Echinochloa crus-galli, 312 h, after 13 days, read-out: evaluation (100=total damage to plant; 0=no damage to plant). An outline of the steps: as §1
Another experiment has as its system IPOHE. The experiment is described as follows: Pre-emergence biological efficacy (Table 3). Conditions: Ipomoea hederacea, 312 h, after 13 days, read-out: evaluation (100=total damage to plant; 0=no damage to plant). An outline of the steps:
as §1

The next experiment deals with SETFA. Put plainly: Pre-emergence biological efficacy (Table 3). Conditions: Setaria faberi, 312 h, after 13 days, read-out: evaluation (100=total damage to plant; 0=no damage to plant). An outline of the steps: as §1
The test system of the next experiment is ZEAMX. Put plainly: Pre-emergence biological efficacy (Table 3). To be noted: 312 h, after 13 days, read-out: evaluation (100=total damage to plant; 0=no damage to plant). An outline of the steps:
as §1

The test system of the next experiment is weeds and/or crops. Put plainly: Post-emergence biological efficacy (Table 4). To be noted: 312 h, evaluated after 13 days. An outline of the steps:
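Scores are visual damage (0 = none, 100 = total), read 13 days after treatment at 24/18 °C with 15 h light. Plants had been sown in standard soil and grown 14 days before a spray of compound in F50/acetone, diluted with 0.2% Genapol X080.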

Setting [1] is: AMAPA, read-out: damage to plant AMAPA (100=total damage; 0=no damage).
Where [2] appears, read: ZEAMX, read-out: damage to plant ZEAMX (100=total damage; 0=no damage).
Setting [3] is: Amaranthus retroflexus, AMARE, read-out: damage to plant AMARE (100=total damage; 0=no damage).
[4] abbreviates: Echinochloa crus-galli, ECHCG, read-out: damage to plant ECHCG (100=total damage; 0=no damage).
The mark [5] stands for this setting: Ipomoea hederacea, IPOHE, read-out: damage to plant IPOHE (100=total damage; 0=no damage).
Where [6] appears, read: Setaria faberi, SETFA, read-out: damage to plant SETFA (100=total damage; 0=no damage).

Where two headings read alike, the source gives them in different places.

Turning to `O=C(O)C(F)(F)c1ccc(OC(F)(F)F)cc1Cl` [Compound 1-59, 2-[2-Chloro-4-(trifluoromethoxy)phenyl]-2,2-difluoro-acetic acid], the pest or weed control at 250 g/ha with AMAPA came out at 20%; in the experiment on AMARE, 20%; in the experiment with ECHCG it was 0%; in the experiment with IPOHE, 10%; in the experiment on SETFA it was 10%; in the experiment on weeds and/or crops (setting [1]), 60%. For the same compound, the pest or weed control at 250 g/ha was determined as 0% with weeds and/or crops (setting [2]); 60% in the experiment with weeds and/or crops (setting [3]); 0% in the experiment on weeds and/or crops (setting [4]); 40% with weeds and/or crops (setting [5]); 10% in the experiment on weeds and/or crops (setting [6]). Moreover, the plant injury at 250 g/ha with ZEAMX came to 0%.
In the case of `COC(=O)c1c(Cl)cccc1C(F)(F)C(=O)O` [Compound 1-444, 2-(3-Chloro-2-methoxycarbonyl-phenyl)-2,2-difluoro-acetic acid], the pest or weed control at 1000 g/ha in the experiment with AMAPA came out at 60%; in the experiment with AMARE it was 40%; in the experiment with ECHCG, 0%; in the experiment on IPOHE, 50%; in the experiment on SETFA it was 0%; in the experiment on weeds and/or crops (setting [1]), 60%. In addition, the pest or weed control at 1000 g/ha is 10% with weeds and/or crops (setting [2]); 70% with weeds and/or crops (setting [3]); 10% in the experiment with weeds and/or crops (setting [4]); 50% in the experiment on weeds and/or crops (setting [5]); 20% in the experiment on weeds and/or crops (setting [6]). The plant injury at 1000 g/ha in the experiment on ZEAMX came to 0%.
In the case of `O=C(O)C(F)(F)c1cccc2c1CCO2` [Compound 1-420, 2-(2,3-Dihydrobenzofuran-4-yl)-2,2-difluoro-acetic acid], the pest or weed control at 1000 g/ha with AMAPA amounted to 60%; in the experiment on AMARE, 80%; in the experiment on ECHCG, 0%; with IPOHE, 70%; in the experiment on SETFA, 0%; in the experiment on weeds and/or crops (setting [1]), 70%. The pest or weed control at 1000 g/ha in the experiment on weeds and/or crops (setting [2]) was 10%; in the experiment on weeds and/or crops (setting [3]), 80%; in the experiment on weeds and/or crops (setting [4]) it was 10%; in the experiment with weeds and/or crops (setting [5]), 70%; in the experiment with weeds and/or crops (setting [6]) it was 10%. Also, the plant injury at 1000 g/ha in the experiment on ZEAMX came to 10%.
Regarding `O=C(O)C(F)(F)c1cccc(OC(F)F)c1Cl` [Compound 1-459, 2-[2-Chloro-3-(difluoromethoxy)phenyl]-2,2-difluoro-acetic acid], the pest or weed control at 1000 g/ha stood at 80% with AMAPA; 70% with AMARE; 50% in the experiment on ECHCG; 90% in the experiment on IPOHE; 100% in the experiment with SETFA; 80% with weeds and/or crops (setting [1]). The pest or weed control at 1000 g/ha in the experiment on weeds and/or crops (setting [2]) stood at 20%; in the experiment with weeds and/or crops (setting [3]) it was 80%; with weeds and/or crops (setting [4]) it was 40%; with weeds and/or crops (setting [5]) it was 90%; in the experiment on weeds and/or crops (setting [6]), 60%. Further, the plant injury at 1000 g/ha with ZEAMX turned out to be 0%.
Regarding `COc1c(C(F)(F)F)cccc1C(F)(F)C(=O)O` [Compound 1-464, 2,2-Difluoro-2-[2-methoxy-3-(trifluoromethyl)phenyl]acetic acid], the pest or weed control at 250 g/ha with AMAPA came to 60%; in the experiment on AMARE, 40%; in the experiment with ECHCG it was 10%; in the experiment with IPOHE, 50%; with SETFA, 30%; in the experiment with weeds and/or crops (setting [1]), 80%. Besides, the pest or weed control at 250 g/ha stood at 10% in the experiment with weeds and/or crops (setting [2]); 80% in the experiment with weeds and/or crops (setting [3]); 70% in the experiment with weeds and/or crops (setting [4]); 60% in the experiment with weeds and/or crops (setting [5]); 70% with weeds and/or crops (setting [6]). Further, the plant injury at 250 g/ha with ZEAMX is 20%.
For the compound `N#Cc1c(F)ccc(C(F)(F)C(=O)O)c1Cl` [Compound 1-460, 2-(2-Chloro-3-cyano-4-fluoro-phenyl)-2,2-difluoro-acetic acid], the pest or weed control at 1000 g/ha in the experiment with AMAPA was determined as 90%; with AMARE it was 80%; with ECHCG, 0%; in the experiment on IPOHE it was 70%; in the experiment with SETFA it was 10%; with weeds and/or crops (setting [1]) it was 90%. Besides, the pest or weed control at 1000 g/ha in the experiment on weeds and/or crops (setting [2]) amounted to 10%; with weeds and/or crops (setting [3]), 90%; with weeds and/or crops (setting [4]), 20%; in the experiment on weeds and/or crops (setting [5]) it was 60%; with weeds and/or crops (setting [6]), 40%. Further, the plant injury at 1000 g/ha in the experiment with ZEAMX came to 10%.
On to `COc1c(F)ccc(C(F)(F)C(=O)O)c1F` [Compound 1-458, 2-(2,4-Difluoro-3-methoxy-phenyl)-2,2-difluoro-acetic acid], for which the pest or weed control at 1000 g/ha stood at 90% with AMAPA; 90% in the experiment with AMARE; 0% with ECHCG; 80% with IPOHE; 0% in the experiment on SETFA; 90% in the experiment with weeds and/or crops (setting [1]). The pest or weed control at 1000 g/ha in the experiment on weeds and/or crops (setting [2]) amounted to 40%; with weeds and/or crops (setting [3]), 90%; in the experiment on weeds and/or crops (setting [4]), 90%; in the experiment on weeds and/or crops (setting [5]), 70%; with weeds and/or crops (setting [6]), 90%. Besides, the plant injury at 1000 g/ha in the experiment with ZEAMX worked out at 20%.
With `N#Cc1cccc(C(F)(F)C(=O)O)c1F` [Compound 1-192, 2-(3-Cyano-2-fluoro-phenyl)-2,2-difluoro-acetic acid], the pest or weed control at 1000 g/ha was 70% in the experiment with AMAPA; 80% in the experiment on AMARE; 0% in the experiment with ECHCG; 70% in the experiment on IPOHE; 50% with SETFA; 80% with weeds and/or crops (setting [1]). Besides, the pest or weed control at 1000 g/ha in the experiment on weeds and/or crops (setting [2]) was found to be 20%; with weeds and/or crops (setting [3]), 80%; in the experiment with weeds and/or crops (setting [4]), 30%; in the experiment with weeds and/or crops (setting [5]), 70%; in the experiment with weeds and/or crops (setting [6]), 60%. In the experiment with ZEAMX, the plant injury at 1000 g/ha was 0%.
In the case of `COc1c(C)cccc1C(F)(F)C(=O)O` [Compound 1-463, 2,2-Difluoro-2-(2-methoxy-3-methyl-phenyl)acetic acid], the pest or weed control at 1000 g/ha is 60% in the experiment with AMAPA; 50% with AMARE; 0% with ECHCG; 50% in the experiment on IPOHE; 0% in the experiment on SETFA; 70% in the experiment on weeds and/or crops (setting [1]). The pest or weed control at 1000 g/ha is 10% in the experiment on weeds and/or crops (setting [2]); 80% in the experiment with weeds and/or crops (setting [3]); 10% in the experiment with weeds and/or crops (setting [4]); 70% in the experiment with weeds and/or crops (setting [5]); 30% in the experiment with weeds and/or crops (setting [6]). Further, the plant injury at 1000 g/ha in the experiment on ZEAMX was 0%.
